According to ChEMBL document CHEMBL1811842, “Synthesis and evaluation of biotinylated sansalvamide A analogs and their modulation of Hsp90” (Bioorg Med Chem Lett, 2011):
Activity calls are given as the source filed them. No cut-off for these calls is given here.

Biological target: Heat shock protein HSP90 (Homo sapiens) (UniProt P07900+P08238)
Assay: Binding affinity to human HSP90-N-Middle Domain expressed in BL21 Escherichia coli after 2 hrs using silver staining by Pull down assay

Activity	SMILES
Active	CC(C)C[C@@H]1NC(=O)[C@H](CCCCNC(=O)OCc2ccccc2)NC(=O)[C@H](Cc2ccccc2)NC(=O)[C@@H](Cc2ccccc2)N(C)C(=O)[C@H](CCCCNC(=O)CCOCCOCCOCCOCCNC(=O)CCCC[C@@H]2SC[C@@H]3NC(=O)N[C@@H]32)NC1=O
Active	CC(C)[C@@H]1NC(=O)[C@H](CCCCNC(=O)CCOCCOCCOCCOCCNC(=O)CCCC[C@@H]2SC[C@@H]3NC(=O)N[C@@H]32)NC(=O)[C@H](CCCCNC(=O)OCc2ccccc2)NC(=O)[C@H](Cc2ccccc2)NC(=O)[C@@H](Cc2ccccc2)N(C)C1=O
Active	CC(C)C[C@@H]1NC(=O)[C@H](CCCCNC(=O)OCc2ccccc2)NC(=O)[C@H](CCCCNC(=O)CCOCCOCCOCCOCCNC(=O)CCCC[C@@H]2SC[C@@H]3NC(=O)N[C@@H]32)NC(=O)[C@@H](Cc2ccccc2)N(C)C(=O)[C@H](C(C)C)NC1=O
